Measurements as given in US20250000788A1, “BIOCOMPATIBLE DEVICES FOR CELL-BASED THERAPIES AND RELATED METHODS” (SIGILON THERAPEUTICS, INC., priority 2021, published 2025).

What was measured:
[1] = system: immune-competent C57Bl/6 mice; test: PFO on spheres with mIL-10 secreting ARPE-19 cells and glucocorticoid particles implanted in the peritoneum of mice; assay type: in vivo; details: mIL-10 secreting ARPE-19 cells, explanted at 28 days, FIGS. 5C-5L
[2] = system: immune-competent Sprague Dawley rats; test: PFO on spheres with FF particles and ARPE-19 cells implanted in the peritoneum of rats; assay type: in vivo; details: unmodified ARPE-19 cells or cells secreting one of two parathyroid hormone fusion proteins, 21 days, data not shown
Description: In a third experiment, spheres co-encapsulating FF particles and either unmodified human ARPE-19 cells or ARPE-19 cells genetically modified to secrete one of two different fusion proteins comprising human parathyroid hormone were implanted in the peritoneum of immune-competent Sprague Dawley rats (five rats per group).

[3] = system: immune-competent C57Bl/6 mice; test: PFO induction on spheres with GLA-secreting human cells and drug particles implanted in the peritoneum of mice; assay type: in vivo; details: explanted after 20 days; for PFO induction on explanted spheres (brightfield micrographs): GLA-secreting human cells co-encapsulated with drug particles, peritoneum; for computer aided opacity scoring of PFO induction: FIG. 4B
Description: GLA-secreting human cells were co-encapsulated with particles of the indicated drug and implanted in the peritoneum of immune-competent C57Bl/6 mice.
GLA-secreting human ARPE-19 cells were co-encapsulated with or without TAH particles into spheres that were then implanted in the peritoneum of immune-competent C57Bl/6 mice.

[4] = system: immune-competent C57Bl/6 mice; test: In vivo hGLA production and viability of GLA-secreting human cells co-encapsulated with TAH crystals, implanted in mice
Experimental: GLA-secreting human cells were co-encapsulated with TAH crystals into spheres that were then implanted in the peritoneum of immune-competent C57Bl/6 mice. The amount of hGLA produced by the spheres (e.g., devices) in vivo at site of implantation and in systemic circulation was measured.

[5] = Release of soluble drug from alginate spheres containing drug particles, incubated in Normosol; assay type: physicochemical; details: 1 ml Normosol, 37 C; over a 62 (Cyclosporine A) and 32 (TAH) day period respectively; FIG. 1B, 2B
Description: Cyclosporine A particles and Triamcinolone Hexacetonide (TAH) particles were encapsulated in the inner compartment of two compartment alginate hydrogel capsules (“spheres”).

[6] = 20 days post-implantation, FIG. 6

Compound | PFO on explanted spheres [1] | PFO induction on explanted spheres (brightfield micrographs) [3] | computer aided opacity scoring of PFO induction [3] | other results
fluticasone furoate [FF] | minimal to no PFO | – | – | PFO on explanted spheres [2]: minimal to no PFO
COc1c(C)c2c(c(O)c1C/C=C(\C)CCC(=O)OCCN1CCOCC1)C(=O)OC2 [MMF] | – | extensive PFO induction | no statistically significant decrease in PFO induction | –
C[C@@H]1CCN(C(=O)CC#N)C[C@@H]1N(C)c1ncnc2[nH]ccc12 [Tofactitinib] | – | extensive PFO induction | no statistically significant decrease in PFO induction | –
C[C@@H]1C[C@H]2[C@@H]3CCC4=CC(=O)C=C[C@]4(C)[C@@]3(Cl)[C@@H](O)C[C@]2(C)[C@@]1(OC(=O)c1ccco1)C(=O)CCl [MF, mometasone furoate] | minimal to no PFO | – | – | –
fluticasone propionate [FP] | minimal to no PFO | – | – | –
CC(C)(C)CC(=O)OCC(=O)[C@@]12OC(C)(C)O[C@@H]1C[C@H]1[C@@H]3CCC4=CC(=O)C=C[C@]4(C)[C@@]3(F)[C@@H](O)C[C@@]12C [TAH, triamcinolone hexacetonide] | minimal to no PFO | completely prevented induction of PFO | – | hGLA in plasma [4, 6]: Significant levels of hGLA; hGLA in the peritoneal lavage [4, 6]: Significant levels of hGLA; viability in vivo of co-encapsulated GLA-secreting human cells ([4]; retrieved spheres, over a course of 20 days, data not shown): maintained their viability; soluble drug released from the spheres into the Normosol solution [5]: extended release
